# Laboratory results: PMC6691788, “Design and synthesis of phthalazine-based compounds as potent anticancer agents with potential antiangiogenic activity via VEGFR-2 inhibition” (Journal of Enzyme Inhibition and Medicinal Chemistry, 2019)
# How the values were obtained:
# MDA-MB-435 = assay: NCI 60 cell panel SRB screen; assay type: cell-based; details: Homo sapiens
# SK-OV-3 = assay: NCI 60 cell panel SRB screen; assay type: cell-based; details: Homo sapiens
# MCF7 = assay: NCI 60 cell panel SRB screen; assay type: cell-based; details: Homo sapiens
# SN12C = assay: NCI 60 cell panel SRB screen; assay type: cell-based; details: Homo sapiens
# K-562 = assay: NCI 60 cell panel SRB screen; assay type: cell-based; details: Homo sapiens, K562
# NCI-H23 = assay: NCI 60 cell panel SRB screen; assay type: cell-based; details: Homo sapiens
# A549/ATCC = assay: NCI 60 cell panel SRB screen; assay type: cell-based; details: Homo sapiens
# SF-268 = assay: NCI 60 cell panel SRB screen; assay type: cell-based; details: Homo sapiens
# NCI-H322M = assay: NCI 60 cell panel SRB screen; assay type: cell-based; details: Homo sapiens
# ACHN = assay: NCI 60 cell panel SRB screen; assay type: cell-based; details: Homo sapiens
# VEGFR-2 tyrosine kinase = target: T1, VEGFR-2 tyrosine kinase (Homo sapiens, UniProt P35968); assay: In vitro VEGFR-2 tyrosine kinase assay (BPS Bioscience); assay type: biochemical; details: read-out: VEGFR-2 % inhibition; 10 μM concentration
# T1 construct: purchased BPS Bioscience 40301
# T1 sequence (P35968 20-1356): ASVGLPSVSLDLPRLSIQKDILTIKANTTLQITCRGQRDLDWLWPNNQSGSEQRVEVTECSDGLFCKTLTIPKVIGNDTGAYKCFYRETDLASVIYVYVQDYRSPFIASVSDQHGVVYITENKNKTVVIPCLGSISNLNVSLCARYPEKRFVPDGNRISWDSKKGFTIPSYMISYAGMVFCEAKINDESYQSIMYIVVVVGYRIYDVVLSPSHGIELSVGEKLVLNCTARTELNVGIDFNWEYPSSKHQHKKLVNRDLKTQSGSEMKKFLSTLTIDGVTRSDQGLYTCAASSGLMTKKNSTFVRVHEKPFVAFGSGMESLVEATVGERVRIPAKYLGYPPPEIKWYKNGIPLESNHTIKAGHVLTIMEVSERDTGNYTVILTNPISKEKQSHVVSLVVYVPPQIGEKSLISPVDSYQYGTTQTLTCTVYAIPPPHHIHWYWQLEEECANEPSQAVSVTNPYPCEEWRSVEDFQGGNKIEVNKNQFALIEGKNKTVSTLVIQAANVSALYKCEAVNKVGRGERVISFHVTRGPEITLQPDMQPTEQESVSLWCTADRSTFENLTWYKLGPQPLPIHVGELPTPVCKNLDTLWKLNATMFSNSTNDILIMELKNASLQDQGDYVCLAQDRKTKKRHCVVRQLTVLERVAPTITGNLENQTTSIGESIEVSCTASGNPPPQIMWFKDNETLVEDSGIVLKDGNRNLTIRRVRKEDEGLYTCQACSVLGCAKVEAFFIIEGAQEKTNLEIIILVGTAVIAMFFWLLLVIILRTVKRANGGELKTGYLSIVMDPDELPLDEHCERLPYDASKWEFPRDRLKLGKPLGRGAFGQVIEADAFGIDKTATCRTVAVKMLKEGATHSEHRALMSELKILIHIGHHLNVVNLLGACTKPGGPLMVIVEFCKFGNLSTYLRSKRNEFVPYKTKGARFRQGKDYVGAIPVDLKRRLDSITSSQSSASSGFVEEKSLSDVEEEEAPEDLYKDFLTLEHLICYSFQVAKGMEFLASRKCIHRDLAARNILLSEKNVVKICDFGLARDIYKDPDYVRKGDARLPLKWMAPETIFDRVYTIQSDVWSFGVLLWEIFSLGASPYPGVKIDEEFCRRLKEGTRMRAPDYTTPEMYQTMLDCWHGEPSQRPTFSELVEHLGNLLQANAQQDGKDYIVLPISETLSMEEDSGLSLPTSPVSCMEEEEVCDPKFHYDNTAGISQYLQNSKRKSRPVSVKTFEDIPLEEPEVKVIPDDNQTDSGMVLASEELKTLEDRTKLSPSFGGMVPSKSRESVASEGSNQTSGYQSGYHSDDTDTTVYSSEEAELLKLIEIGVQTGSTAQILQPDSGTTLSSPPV
# Summary of the method: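 For IC50, ADP formation after a 30-min 30 °C reaction was detected by ADP-Glo luminescence in duplicate, blank-subtracted and fitted as log inhibitor versus normalised response. The 10 µM single-dose test instead measured remaining ATP (Kinase-Glo Plus) after 40 min at 30 °C with poly(Glu,Tyr) substrate, 10 μM ATP, pH 7.4, 1% DMSO.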
# UACC-257 = assay: NCI 60 cell panel SRB screen; assay type: cell-based; details: Homo sapiens
# UO-31 = assay: NCI 60 cell panel SRB screen; assay type: cell-based; details: Homo sapiens
# U251 = assay: NCI 60 cell panel SRB screen; assay type: cell-based; details: Homo sapiens, U-251
# MOLT-4 = assay: NCI 60 cell panel SRB screen; assay type: cell-based; details: Homo sapiens
# RPMI-8226 = assay: NCI 60 cell panel SRB screen; assay type: cell-based; details: Homo sapiens
# HOP-92 = assay: NCI 60 cell panel SRB screen; assay type: cell-based; details: Homo sapiens
# NCI-H522 = assay: NCI 60 cell panel SRB screen; assay type: cell-based; details: Homo sapiens
# NCI/ADR-RES = assay: NCI 60 cell panel SRB screen; assay type: cell-based; details: Homo sapiens
# SF-295 = assay: NCI 60 cell panel SRB screen; assay type: cell-based; details: Homo sapiens
# [1] = 5 log dose, 48 h, read-out: LC50 (the source's name)
# [2] = single dose 10 μM, read-out: percent cell growth promotion
smiles,measurement,setting,value
"Clc1ccc(Nc2nnc(CNc3ccccc3)c3ccccc23)cc1 [Compound 16a, N-(4-Chlorophenyl)-4-((phenylamino)methyl)phthalazin-1-amine]",GI50,MDA-MB-435; MDA-MB-435,1.47 µM
same,IC (TGI),"MDA-MB-435; MDA-MB-435, read-out: TGI",7.88 µM
same,activity at 10 µM,"MDA-MB-435; MDA-MB-435, read-out: percent cell growth promotion",4.17%
same,CC50,"MDA-MB-435; MDA-MB-435, 5 log dose, 48 h, read-out: LC50 (the source's name)",> 25 µM
same,GI50,"SK-OV-3; SK-OV-3, 5 log dose",3.17 µM
same,IC (TGI),"SK-OV-3; SK-OV-3, 5 log dose",11.4 µM
same,CC50,"SK-OV-3; SK-OV-3, 5 log dose, 48 h, read-out: LC50 (the source's name)",> 25 µM
same,activity at 10 µM,"SK-OV-3; SK-OV-3, single dose 10 μM, read-out: percent cell growth promotion",22%
same,IC (TGI),"MCF7; MCF7, read-out: TGI",11.1 µM
same,activity at 10 µM,"MCF7; MCF7, read-out: percent cell growth promotion",9.2%
same,CC50,"MCF7; MCF7, 5 log dose, 48 h, read-out: LC50 (the source's name)",> 25 µM
same,GI50,SN12C; 5 log dose,3.95 µM
same,IC (TGI),SN12C; 5 log dose,18.9 µM
same,CC50,SN12C; [1],> 25 µM
same,activity at 10 µM,SN12C; [2],28.9%
same,GI50,"K-562; K-562, 5 log dose",1.71 µM
same,IC (TGI),"K-562; K-562, 5 log dose",14.5 µM
same,CC50,"K-562; K-562, 5 log dose, 48 h, read-out: LC50 (the source's name)",> 25 µM
same,activity at 10 µM,"K-562; K-562, single dose 10 μM, read-out: percent cell growth promotion",5.39%
same,GI50,"NCI-H23; NCI-H23, 5 log dose",2.5 µM
same,IC (TGI),"NCI-H23; NCI-H23, 5 log dose",16.4 µM
same,CC50,"NCI-H23; NCI-H23, 5 log dose, 48 h, read-out: LC50 (the source's name)",> 25 µM
same,activity at 10 µM,"NCI-H23; NCI-H23, single dose 10 μM, read-out: percent cell growth promotion",9.95%
same,GI50,A549/ATCC; 5 log dose,3.17 µM
same,IC (TGI),A549/ATCC; 5 log dose,20 µM
same,LC50 (concentration killing 50% of cells),"A549/ATCC; 5 log dose, 48 h",> 25 µM
same,activity at 10 µM,A549/ATCC; [2],20.3%
same,GI50,"SF-268; SF-268, 5 log dose",3.28 µM
same,IC (TGI),"SF-268; SF-268, 5 log dose",14.5 µM
same,CC50,"SF-268; SF-268, 5 log dose, 48 h, read-out: LC50 (the source's name)",> 25 µM
same,activity at 10 µM,"SF-268; SF-268, single dose 10 μM, read-out: percent cell growth promotion",20.9%
same,GI50,NCI-H322M; 5 log dose,3.54 µM
same,IC (TGI),NCI-H322M; 5 log dose,18.3 µM
same,CC50,NCI-H322M; [1],> 25 µM
same,activity at 10 µM,NCI-H322M; [2],30.4%
same,GI50,ACHN; 5 log dose,3.1 µM
same,IC (TGI),ACHN; 5 log dose,> 25 µM
same,CC50,ACHN; [1],> 25 µM
same,activity at 10 µM,ACHN; [2],7.07%
same,inhibition at 10 µM,VEGFR-2 tyrosine kinase,47%
same,GI50,UACC-257; UACC-257,2.74 µM
same,IC (TGI),"UACC-257; UACC-257, read-out: TGI",6.87 µM
same,activity at 10 µM,"UACC-257; UACC-257, read-out: percent cell growth promotion",-6.49%
same,CC50,"UACC-257; UACC-257, 5 log dose, 48 h, read-out: LC50 (the source's name)",17.2 µM
same,GI50,"UO-31; UO-31, 5 log dose",1.36 µM
same,IC (TGI),"UO-31; UO-31, 5 log dose",6.66 µM
same,CC50,"UO-31; UO-31, 5 log dose, 48 h, read-out: LC50 (the source's name)",23.8 µM
same,activity at 10 µM,"UO-31; UO-31, single dose 10 μM, read-out: percent cell growth promotion",1.91%
same,GI50,"U251; U251, 5 log dose",3.28 µM
same,IC (TGI),"U251; U251, 5 log dose",7.33 µM
same,CC50,"U251; U251, 5 log dose, 48 h, read-out: LC50 (the source's name)",16.4 µM
same,activity at 10 µM,"U251; U251, single dose 10 μM, read-out: percent cell growth promotion",9.66%
same,GI50,"MOLT-4; MOLT-4, 5 log dose",1.71 µM
same,IC (TGI),"MOLT-4; MOLT-4, 5 log dose",8.75 µM
same,CC50,"MOLT-4; MOLT-4, 5 log dose, 48 h, read-out: LC50 (the source's name)",> 25 µM
same,activity at 10 µM,"MOLT-4; MOLT-4, single dose 10 μM, read-out: percent cell growth promotion",-9.21%
same,GI50,"RPMI-8226; RPMI-8226, 5 log dose",2.1 µM
same,IC (TGI),"RPMI-8226; RPMI-8226, 5 log dose",7.71 µM
same,CC50,"RPMI-8226; RPMI-8226, 5 log dose, 48 h, read-out: LC50 (the source's name)",> 25 µM
same,activity at 10 µM,"RPMI-8226; RPMI-8226, single dose 10 μM, read-out: percent cell growth promotion",3.35%
same,GI50,"HOP-92; HOP-92, 5 log dose",0.77 µM
same,IC (TGI),"HOP-92; HOP-92, 5 log dose",6.29 µM
same,CC50,"HOP-92; HOP-92, 5 log dose, 48 h, read-out: LC50 (the source's name)",> 25 µM
same,activity at 10 µM,"HOP-92; HOP-92, single dose 10 μM, read-out: percent cell growth promotion",-19.4%
same,GI50,"NCI-H522; NCI-H522, 5 log dose",0.68 µM
same,IC (TGI),"NCI-H522; NCI-H522, 5 log dose",4.62 µM
same,CC50,"NCI-H522; NCI-H522, 5 log dose, 48 h, read-out: LC50 (the source's name)",18.5 µM
same,activity at 10 µM,"NCI-H522; NCI-H522, single dose 10 μM, read-out: percent cell growth promotion",-5.92%
same,GI50,NCI/ADR-RES; 5 log dose,4.12 µM
same,IC (TGI),NCI/ADR-RES; 5 log dose,17 µM
same,CC50,NCI/ADR-RES; [1],> 25 µM
same,activity at 10 µM,NCI/ADR-RES; [2],18.8%
same,GI50,"SF-295; SF-295, 5 log dose",2.98 µM
same,IC (TGI),"SF-295; SF-295, 5 log dose",8.77 µM
same,CC50,"SF-295; SF-295, 5 log dose, 48 h, read-out: LC50 (the source's name)",> 25 µM
same,activity at 10 µM,"SF-295; SF-295, single dose 10 μM, read-out: percent cell growth promotion",14.3%
